Laboratory results as given in patent EP4772178A1, “ANTI-TUMOR USE OF ACT001 COMPOSITION” (Accendatech Co. Ltd., priority 2023, dated 2025).
Several values for one entry are separate records, joined by “and”; a condition that tells them apart may be missing. Equal entries are not always repeated.

Experiments:
[1] = tested on: peripheral blood suppressive Treg lymphocytes; experiment: ACT001-CN-002 Phase II clinical trial, exploratory endpoint: peripheral blood Treg ratio; assay type: in vivo, patients; settings: one line per patient; for Peripheral blood Treg ratio (before treatment): first figure of the cell; for Peripheral blood Treg ratio (after treatment): second figure of the cell
GBM = experiment: ACT001-CN-002 Phase II clinical trial, efficacy (best response, iRANO criteria); assay type: in vivo, patients; settings: one line per patient; duration of stable disease
[2] = ACT001-CN-002 Phase II clinical trial, safety assessment (peripheral blood lymphopenia)
Protocol: GBM patients who relapsed after standard treatment were randomly assigned to three cohorts of an ACT001-CN-002 Phase II clinical trial: • Cohort A: ACT001 monotherapy (400 mg, BID); • Cohort B: ACT001 and TMZ (temozolomide) were administered in combination at doses of 400mg, BID (ACT001) and 200 mg/m^2/day (TMZ, administered on days one to five of each 28-day course of treatment), respectively; • Cohort C: CCNU monotherapy (lomustine, 100-130 mg/m^2/dose, once every six weeks, 4 doses at most) or TMZ monotherapy (the dosage level and the route of administration were the same as those for cohort B).
The trial endpoints were post-dose progression-free survival (iRANO criteria), one-year survival rate, and safety assessment: the number of times each safety event occurred (e.g., the incidence of peripheral blood lymphopenia). The exploratory endpoints included changes in the peripheral blood suppressive Treg lymphocyte ratio.

Row | Compound | Peripheral blood Treg ratio (before treatment) [1] | Peripheral blood Treg ratio (after treatment) [1] | Best response time (months) (GBM) | Grade 3 or higher lymphopenia ([2]; one line per patient) | Grade 3 or higher lymphopenia ([2]; human, in vivo)
1 | O=NN(CCCl)C(=O)NC1CCCCC1 [CCNU, lomustine] | 6.6 and 5.6 and 11.4 | 12.4 and 7.3 and 9.5 | 6 months | No (2×) and Yes | 
2 | Cn1nnc2c(C(N)=O)ncn2c1=O [TMZ, temozolomide] | 4.3 and 7.1 | 14.3 and 7.5 | 7 months and 4 months |  | 
3 | CC1=C2CC[C@@](C)(O)[C@@H]2[C@H]2OC(=O)[C@@H](CN(C)C)[C@@H]2CC1 [ACT001] | 3.2 and 8.7 and 5.9 and 6.9 and 2.4 | 8.4 and 6.5 and 6.7 and 1.8 and 9.4 | 9 months and 4 months |  | No
